Here are results for 16 compounds from patent publication US11725007B2, “Meta tyrosine derivatives as rho-kinase inhibitors” (Chiesi Farmaceutici S.p.A., priority 2017, dated 2023).

pKi: −log10 of the molar value.

Assay [1] deals with Rho kinase 1 (ROCK1) (Homo sapiens, UniProt Q13464). Briefly: In vitro Rho kinase inhibitory activity assay (ADP-Glo), ROCK1. Type of assay: biochemical. The following applies: 10 μM ATP, Myelin Basic Protein substrate, 25° C., Ki by Cheng-Prusoff. The method, then:
(§1) The effectiveness of compounds of the invention to inhibit Rho kinase activity can be determined in a 10 μl assay containing 40 mM Tris pH7.5, 20 mM MgCl2 0.1 mg/ml BSA, 50 μM DTT and 2.5 μM peptide substrate (Myelin Basic Protein) using an ADP-Glo kit (Promega). Compounds were dissolved in DMSO such that the final concentration of DMSO was 1% in the assay. All reactions/incubations are performed at 25° C. Compound (2 ul) and either Rho kinase 1 or 2 (4 μl) were mixed and incubated for 30 mins. Reactions were initiated by addition of ATP (4 μl) such that the final concentration of ATP in the assay was 10 μM. After a 1 hour incubation 10 μl of ADP-Glo Reagent was added and after a further 45 minute incubation 20 ul of Kinase Detection Buffer was added and the mixture incubated for a further 30 minutes. The luminescent signal was measured on a luminometer. […] Compounds were tested in dose-response format and the inhibition of kinase activity was calculated at each concentration of compound. To determine the IC50 (concentration of compound required to inhibit 50% of the enzyme activity) data were fit to a plot of % inhibition vs Log10 compound concentration using a sigmoidal fit with a variable slope and fixing the maximum to 100% and the minimum to 0%. To determine the Ki values the Cheng-Prusoff equation was utilized (Ki=IC50/(1+[S]/Km)

For assay [2], the target named is Rho kinase 2 (ROCK2) (Homo sapiens, UniProt O75116). As to the kind of experiment: In vitro Rho kinase inhibitory activity assay (ADP-Glo), ROCK2. Type of assay: biochemical. To be noted: 10 μM ATP, Myelin Basic Protein substrate, 25° C., Ki by Cheng-Prusoff. The method, then: as §1
Sequence of Rho kinase 2 (ROCK2) (O75116 whole entry): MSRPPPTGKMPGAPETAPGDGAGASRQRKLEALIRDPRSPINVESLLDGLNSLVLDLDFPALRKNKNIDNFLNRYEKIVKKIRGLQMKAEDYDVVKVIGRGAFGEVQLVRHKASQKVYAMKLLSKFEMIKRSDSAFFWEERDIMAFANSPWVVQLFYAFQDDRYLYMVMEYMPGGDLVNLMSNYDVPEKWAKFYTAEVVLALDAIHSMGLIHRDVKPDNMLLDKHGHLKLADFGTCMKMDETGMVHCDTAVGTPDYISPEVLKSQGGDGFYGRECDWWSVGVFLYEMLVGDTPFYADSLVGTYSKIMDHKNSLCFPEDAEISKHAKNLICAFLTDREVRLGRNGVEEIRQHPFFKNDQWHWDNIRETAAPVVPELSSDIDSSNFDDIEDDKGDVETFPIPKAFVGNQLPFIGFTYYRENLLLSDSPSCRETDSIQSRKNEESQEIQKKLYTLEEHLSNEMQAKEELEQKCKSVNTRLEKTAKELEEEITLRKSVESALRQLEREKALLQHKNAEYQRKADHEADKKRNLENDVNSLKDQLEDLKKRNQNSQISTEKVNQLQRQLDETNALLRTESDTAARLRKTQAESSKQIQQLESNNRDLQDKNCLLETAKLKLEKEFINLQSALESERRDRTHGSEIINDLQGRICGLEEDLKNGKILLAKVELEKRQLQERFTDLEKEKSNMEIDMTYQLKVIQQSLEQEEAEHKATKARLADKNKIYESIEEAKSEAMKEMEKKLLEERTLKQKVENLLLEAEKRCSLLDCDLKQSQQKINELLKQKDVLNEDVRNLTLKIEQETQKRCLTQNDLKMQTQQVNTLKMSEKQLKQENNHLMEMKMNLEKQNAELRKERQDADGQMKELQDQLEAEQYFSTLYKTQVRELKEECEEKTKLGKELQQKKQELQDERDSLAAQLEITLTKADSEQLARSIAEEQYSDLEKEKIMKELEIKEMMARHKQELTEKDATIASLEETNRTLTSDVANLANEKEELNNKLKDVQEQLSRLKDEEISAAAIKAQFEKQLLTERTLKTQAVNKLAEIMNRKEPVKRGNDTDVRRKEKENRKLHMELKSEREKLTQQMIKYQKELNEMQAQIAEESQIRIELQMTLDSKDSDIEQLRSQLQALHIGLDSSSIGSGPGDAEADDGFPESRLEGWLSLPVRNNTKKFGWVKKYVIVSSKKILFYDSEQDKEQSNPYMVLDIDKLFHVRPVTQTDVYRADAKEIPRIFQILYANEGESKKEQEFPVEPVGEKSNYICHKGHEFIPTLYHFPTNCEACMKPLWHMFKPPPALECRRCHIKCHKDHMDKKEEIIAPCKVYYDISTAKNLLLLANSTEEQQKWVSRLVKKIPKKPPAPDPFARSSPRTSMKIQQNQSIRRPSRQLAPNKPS

Sequence of Rho kinase 1 (ROCK1) (Q13464 whole entry): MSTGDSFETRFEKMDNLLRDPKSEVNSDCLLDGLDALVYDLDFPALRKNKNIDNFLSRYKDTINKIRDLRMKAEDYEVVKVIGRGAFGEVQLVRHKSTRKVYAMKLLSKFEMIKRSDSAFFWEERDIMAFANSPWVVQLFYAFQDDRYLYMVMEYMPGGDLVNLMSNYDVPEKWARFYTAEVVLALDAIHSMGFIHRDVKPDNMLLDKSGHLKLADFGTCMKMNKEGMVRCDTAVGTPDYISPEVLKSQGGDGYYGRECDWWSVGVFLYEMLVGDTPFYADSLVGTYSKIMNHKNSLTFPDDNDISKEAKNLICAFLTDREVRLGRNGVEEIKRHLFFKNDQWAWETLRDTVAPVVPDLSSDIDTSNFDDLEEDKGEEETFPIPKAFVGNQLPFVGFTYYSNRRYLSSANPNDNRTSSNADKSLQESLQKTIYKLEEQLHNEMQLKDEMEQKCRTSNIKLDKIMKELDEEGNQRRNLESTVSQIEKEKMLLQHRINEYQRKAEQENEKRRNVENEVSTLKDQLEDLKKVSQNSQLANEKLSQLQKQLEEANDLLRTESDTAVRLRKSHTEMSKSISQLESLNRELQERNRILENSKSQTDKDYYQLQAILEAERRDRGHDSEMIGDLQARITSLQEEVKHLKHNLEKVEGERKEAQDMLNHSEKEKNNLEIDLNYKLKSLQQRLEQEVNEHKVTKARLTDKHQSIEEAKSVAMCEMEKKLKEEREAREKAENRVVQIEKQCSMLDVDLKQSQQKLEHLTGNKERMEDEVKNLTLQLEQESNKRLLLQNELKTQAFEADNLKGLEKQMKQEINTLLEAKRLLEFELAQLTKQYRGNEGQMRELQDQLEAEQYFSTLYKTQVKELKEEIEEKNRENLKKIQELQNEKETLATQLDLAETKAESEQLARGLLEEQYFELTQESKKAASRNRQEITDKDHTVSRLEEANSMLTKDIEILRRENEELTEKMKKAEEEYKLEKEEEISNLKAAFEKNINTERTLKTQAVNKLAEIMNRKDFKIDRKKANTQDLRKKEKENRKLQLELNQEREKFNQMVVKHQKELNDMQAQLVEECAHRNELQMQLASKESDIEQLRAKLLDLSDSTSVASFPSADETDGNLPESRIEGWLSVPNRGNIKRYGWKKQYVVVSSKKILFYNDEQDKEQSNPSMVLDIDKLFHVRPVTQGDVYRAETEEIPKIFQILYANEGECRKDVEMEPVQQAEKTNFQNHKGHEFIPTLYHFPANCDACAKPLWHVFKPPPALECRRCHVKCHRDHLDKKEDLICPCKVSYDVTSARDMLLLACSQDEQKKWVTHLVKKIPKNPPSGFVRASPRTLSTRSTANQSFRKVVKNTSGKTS

`Cc1c[nH]c2nccc(Oc3cccc(C(N)CC(=O)N4CCN(C)CC4)c3)c12` (centres unmarked) [Example 5, 3-amino-3-(3-((3-methyl-1H-pyrrolo[2,3-b]pyridin-4-yl)oxy)phenyl)-1-(4-methylpiperazin-1-yl)propan-1-one]: the pKi in assay [1] and in assay [2] was 7.30 to 8.30 each time.

`Cc1c[nH]c2nccc(Oc3cccc(CC(CN)C(=O)NCCCN(C)C)c3)c12` (centres unmarked) [Example 12, 3-amino-N-(3-(dimethylamino)propyl)-2-(3-((3-methyl-1H-pyrrolo[2,3-b]pyridin-4-yl)oxy)benzyl)propanamide]: the pKi in assay [1] and in assay [2] was under 7.30 throughout.

As to `Cc1c[nH]c2nccc(Oc3cccc(CC(CN)C(=O)N4CCN(C)CC4)c3)c12` (centres unmarked) [Example 9, 3-amino-2-(3-((3-methyl-1H-pyrrolo[2,3-b]pyridin-4-yl)oxy)benzyl)-1-(4-methylpiperazin-1-yl)propan-1-one], the pKi in assay [1] and in assay [2] was under 7.30 throughout.

In the case of `Cc1c[nH]c2nccc(Oc3cccc(C(N)CC(=O)NCCc4ccncc4)c3)c12` (centres unmarked) [Example 7, 3-amino-3-(3-((3-methyl-1H-pyrrolo[2,3-b]pyridin-4-yl)oxy)phenyl)-N-(2-(pyridin-4-yl)ethyl)propanamide], the pKi in assay [1] and in assay [2] was 7.30 to 8.30 throughout.

In the case of `COCCCNC(=O)CC(N)c1cccc(Oc2ccnc3[nH]cc(C)c23)c1` (centres unmarked) [Example 6, 3-amino-N-(3-methoxypropyl)-3-(3-((3-methyl-1H-pyrrolo[2,3-b]pyridin-4-yl)oxy)phenyl)propanamide], the pKi in assay [1] and in assay [2] was 7.30 to 8.30 in each case.

As to `Cc1c[nH]c2nccc(Oc3cccc(CC(CN)C(=O)NCCc4ccncc4)c3)c12` (centres unmarked) [Example 11, 3-amino-2-(3-((3-methyl-1H-pyrrolo[2,3-b]pyridin-4-yl)oxy)benzyl)-N-(2-(pyridin-4-yl)ethyl)propanamide], the pKi in assay [1] and in assay [2] was 7.30 to 8.30 in each case.

With `Cc1c[nH]c2nccc(Oc3cccc(C(N)CC(=O)NCCCN(C)C)c3)c12` (centres unmarked) [Example 8, 3-amino-N-(3-(dimethylamino)propyl)-3-(3-((3-methyl-1H-pyrrolo[2,3-b]pyridin-4-yl)oxy)phenyl)propanamide], the pKi in assay [1] and in assay [2] was under 7.30 throughout.

On to `Cc1c[nH]c2nccc(Oc3cccc(C(CN)CC(=O)N4CCN(C)CC4)c3)c12` (centres unmarked) [Example 16, 4-amino-3-(3-((3-methyl-1H-pyrrolo[2,3-b]pyridin-4-yl)oxy)phenyl)-1-(4-methylpiperazin-1-yl)butan-1-one], for which the pKi in assay [1] and in assay [2] was 7.30 to 8.30 in each case.

With `Cc1c[nH]c2nccc(Oc3cccc(C(CN)CC(=O)NCCCN(C)C)c3)c12` (centres unmarked) [Example 15, 4-amino-N-(3-(dimethylamino)propyl)-3-(3-((3-methyl-1H-pyrrolo[2,3-b]pyridin-4-yl)oxy)phenyl)butanamide], the pKi in assay [1] and in assay [2] was under 7.30 in each case.

`Cc1c[nH]c2nccc(Oc3cccc(CC(N)C(=O)NCCCN(C)C)c3)c12` (centres unmarked) [Example 3, 2-amino-N-(3-(dimethylamino)propyl)-3-(3-((3-methyl-1H-pyrrolo[2,3-b]pyridin-4-yl)oxy)phenyl)propanamide]: the negative-log Ki (pKi) in assay [1] and in assay [2] was under 7.30 throughout.

Consider `COCCCNC(=O)CC(CN)c1cccc(Oc2ccnc3[nH]cc(C)c23)c1` (centres unmarked) [Example 14, 4-amino-N-(3-methoxypropyl)-3-(3-((3-methyl-1H-pyrrolo[2,3-b]pyridin-4-yl)oxy)phenyl)butanamide], for which the pKi in assay [1] and in assay [2] was 7.30 to 8.30 each time.

In the case of `Cc1c[nH]c2nccc(Oc3cccc(CC(N)C(=O)N4CCN(C)CC4)c3)c12` (centres unmarked) [Example 1, 2-Amino-3-(3-((3-methyl-1H-pyrrolo[2,3-b]pyridin-4-yl)oxy)phenyl)-1-(4-methylpiperazin-1-yl)propan-1-one], the negative-log Ki (pKi) in assay [1] and in assay [2] was 7.30 to 8.30 each time.

As for `Cc1c[nH]c2nccc(Oc3cccc(C(CN)CC(=O)NCCc4ccncc4)c3)c12` (centres unmarked) [Example 13, 4-Amino-3-(3-((3-methyl-1H-pyrrolo[2,3-b]pyridin-4-yl)oxy)phenyl)-N-(2-(pyridin-4-yl)ethyl)butanamide], the pKi in assay [1] and in assay [2] was 7.30 to 8.30 each time.

For `Cc1c[nH]c2nccc(Oc3cccc(CC(N)C(=O)NCCc4ccncc4)c3)c12` (centres unmarked) [Example 4, 2-amino-3-(3-((3-methyl-1H-pyrrolo[2,3-b]pyridin-4-yl)oxy)phenyl)-N-(2-(pyridin-4-yl)ethyl)propanamide], the pKi in assay [1] and in assay [2] was over 8.30 throughout.

As to `COCCCNC(=O)C(N)Cc1cccc(Oc2ccnc3[nH]cc(C)c23)c1` (centres unmarked) [Example 2, 2-amino-N-(3-methoxypropyl)-3-(3-((3-methyl-1H-pyrrolo[2,3-b]pyridin-4-yl)oxy)phenyl)propanamide], the pKi in assay [1] and in assay [2] was 7.30 to 8.30 each time.

On to `COCCCNC(=O)C(CN)Cc1cccc(Oc2ccnc3[nH]cc(C)c23)c1` (centres unmarked) [Example 10, 3-amino-N-(3-methoxypropyl)-2-(3-((3-methyl-1H-pyrrolo[2,3-b]pyridin-4-yl)oxy)benzyl)propanamide], for which the pKi in assay [1] and in assay [2] was 7.30 to 8.30 throughout.
